Earlier results in patent US20070218155A1, “Methods and compositions for treating dyslipidaemia” (priority 2004, published 2007).

Key:
[1] = literature statement; cited from earlier work
[2] = test system: DGAT activity in intact Raji cells; conditions: Tabata et al.; cited from earlier work
HMG CoA reductase = target: T1, HMG CoA reductase (Homo sapiens, UniProt P04035); conditions: HepG2 cells; comparison value; cited from earlier work
T1 construct: host or cells: HepG2
T1 sequence (P04035 1-888): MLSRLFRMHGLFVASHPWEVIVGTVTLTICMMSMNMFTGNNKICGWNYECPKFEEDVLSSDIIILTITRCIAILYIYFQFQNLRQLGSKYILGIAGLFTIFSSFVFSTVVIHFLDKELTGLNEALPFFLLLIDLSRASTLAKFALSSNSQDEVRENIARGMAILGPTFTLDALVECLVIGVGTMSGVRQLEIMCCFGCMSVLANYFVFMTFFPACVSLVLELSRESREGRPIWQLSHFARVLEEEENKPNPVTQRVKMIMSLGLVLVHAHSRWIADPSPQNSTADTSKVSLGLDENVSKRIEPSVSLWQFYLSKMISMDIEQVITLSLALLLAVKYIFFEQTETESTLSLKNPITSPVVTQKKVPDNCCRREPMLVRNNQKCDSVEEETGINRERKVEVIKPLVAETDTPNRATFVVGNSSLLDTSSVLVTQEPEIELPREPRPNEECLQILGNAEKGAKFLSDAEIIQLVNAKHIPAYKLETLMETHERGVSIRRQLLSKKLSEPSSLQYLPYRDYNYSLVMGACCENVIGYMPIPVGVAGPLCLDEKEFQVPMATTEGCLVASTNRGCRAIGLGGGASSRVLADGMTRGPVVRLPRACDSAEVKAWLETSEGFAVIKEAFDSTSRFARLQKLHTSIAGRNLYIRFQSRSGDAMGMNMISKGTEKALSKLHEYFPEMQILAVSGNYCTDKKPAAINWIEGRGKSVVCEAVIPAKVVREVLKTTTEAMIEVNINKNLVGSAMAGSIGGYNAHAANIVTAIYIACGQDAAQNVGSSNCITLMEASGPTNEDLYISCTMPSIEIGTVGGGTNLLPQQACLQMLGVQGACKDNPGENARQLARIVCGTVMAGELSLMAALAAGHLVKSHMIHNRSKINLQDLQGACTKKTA

Row | SMILES | estrogenic activity [1] | inhibition of triacylglycerol formation / DGAT activity in intact Raji cells [2] | inhibition of HMG CoA reductase (HMG CoA reductase)
1 | CC(C)=CCc1c(O)cc(O)c2c1O[C@H](c1ccc(O)cc1)CC2=O [8-prenylnaringenin, 8-prenylnaringenin] | potent estrogenic activity | – | –
2 | COc1cc(O)c(CC=C(C)C)c(O)c1C(=O)/C=C/c1ccc(O)cc1 [xanthohumol] | does not exhibit estrogenic activity | inhibited DGAT activity specifically in human cells | –
3 | CC(C)c1c(C(=O)Nc2ccccc2)c(-c2ccccc2)c(-c2ccc(F)cc2)n1CC[C@@H](O)C[C@@H](O)CC(=O)O [Atorvastatin] | – | – | about 96%
